Measured values reported in patent US20080269298A1, “Benzimidazol-1-YL-thiophene compounds for the treatment of cancer” (priority 2002, published 2008).

Columns and labels:
PLK1 kinase domain = molecular target: T1, PLK1 kinase domain (Homo sapiens, UniProt P53350); experiment: Assay for Inhibition of PLK1 (SPA enzyme activity); type: biochemical; conditions: 2 μM ATP, read-out: Ave pIC50 PLK Enzyme Inhibition (converted)
T1 construct: made in house; host or cells: baculovirus-infected T. ni insect cells

[1] = tested on: lung (H460) tumor cell line; experiment: Methylene Blue Growth Inhibition Assay, H460; type: cell-based; conditions: Homo sapiens, NCI-H460, 72 h; Cell Line H460, 3 days; read-out: MeB IC50
Summary of the method: (§1)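 3-day compound exposure, 0.3% DMSO, 37° C/10% CO2; DMEM + 10% FBS. Seeding: HFF 5,000, RKO 2,500, H460 2,000 cells/well. Readout methylene blue stain, solubilized in N-lauroyl sarcosine, OD 620 nm. IC50 vs vehicle, Levenberg-Marquardt fit.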

[2] = tested on: colon (HCT116) tumor cell line; experiment: Methylene Blue Growth Inhibition Assay, HCT116; type: cell-based; conditions: Homo sapiens, HCT-116, 72 h; Cell Line HCT116, 3 days; read-out: MeB IC50
Summary of the method: (§2)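 Growth inhibition is measured as methylene blue-stained biomass (OD 620 nm) after 3 days of compound treatment, relative to vehicle controls. Cells grow in high-glucose DMEM with 10% FBS and 0.3% final DMSO; IC50 comes from nonlinear regression.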

[3] = tested on: Normal Human foreskin fibroblasts (HFF); experiment: Methylene Blue Growth Inhibition Assay, HFF; type: cell-based; conditions: 72 h, Cell Line HFF, 3 days, read-out: MeB IC50
Summary of the method: as §1

[4] = tested on: breast tumor (MCF7) cell line; experiment: Methylene Blue Growth Inhibition Assay, MCF7; type: cell-based; conditions: Homo sapiens, 72 h; Cell Line MCF7, 3 days; read-out: MeB IC50
Summary of the method: as §2

[5] = tested on: prostate (PC3) tumor cell line; experiment: Methylene Blue Growth Inhibition Assay, PC3; type: cell-based; conditions: Homo sapiens, 72 h; Cell Line PC3, 3 days; read-out: MeB IC50
Summary of the method: as §2

[6] = tested on: colon (RKO) tumor cell line; experiment: Methylene Blue Growth Inhibition Assay, RKO; type: cell-based; conditions: Homo sapiens, 72 h, 3 days, read-out: MeB IC50
Summary of the method: as §1

T1 sequence (P53350 21-346): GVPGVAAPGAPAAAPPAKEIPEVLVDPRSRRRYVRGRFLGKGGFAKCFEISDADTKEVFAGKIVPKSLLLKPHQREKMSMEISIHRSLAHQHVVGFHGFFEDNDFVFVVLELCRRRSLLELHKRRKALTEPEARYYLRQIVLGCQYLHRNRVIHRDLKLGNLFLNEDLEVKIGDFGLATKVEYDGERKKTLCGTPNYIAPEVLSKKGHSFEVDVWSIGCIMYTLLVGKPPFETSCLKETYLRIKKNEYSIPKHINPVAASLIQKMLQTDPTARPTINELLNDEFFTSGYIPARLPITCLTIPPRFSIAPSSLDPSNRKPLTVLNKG

Work on COc1cc2ncn(-c3cc(OS(=O)(=O)c4ccccc4C)c(C(=O)O)s3)c2cc1OC [Example 151, 5-(5,6-Dimethoxy-1H-benzimidazol-1-yl)-3-{[(2-methylphenyl)sulfonyl]oxy}thiophene-2-carboxylic acid] yielded an IC50 (PLK1 kinase domain) of under 0.1 µM, an IC50 [1] of over 10 µM and an IC50 [2] of over 10 µM. The IC50 [3] was over 10 µM, the IC50 [4] was over 10 µM and the IC50 [5] was over 10 µM. The IC50 [6] was over 10 µM.
NC(=O)c1ccc2c(c1)ncn2-c1cc(OCc2ccccc2C(F)(F)F)c(C(N)=O)s1 [Example 125, 1-[5-(Aminocarbonyl)-4-({[2-(trifluoromethyl)phenyl]methyl}oxy)-2-thienyl]-1H-benzimidazole-5-carboxamide] was tested, and the IC50 (PLK1 kinase domain) was under 0.1 µM, the IC50 [1] was 1 to 10 µM and the IC50 [2] was 1 to 10 µM. The IC50 [3] was over 10 µM, the IC50 [4] was 1 to 10 µM and the IC50 [5] was over 10 µM. For the same compound, the IC50 [6] was 1 to 10 µM.
Compound CS(=O)(=O)CCNC(=O)c1ccc2c(c1)ncn2-c1cc(OCc2ccccc2C(F)(F)F)c(C(N)=O)s1 [Example 155, 1-(5-(Aminocarbonyl)-4-{[2-(trifluoromethyl)benzyl]oxy}thien-2-yl)-N-[2-(methylsulfonyl)ethyl]-1H-benzimidazole-5-carboxamide] has an IC50 (PLK1 kinase domain) of under 0.1 µM, an IC50 [1] of over 10 µM and an IC50 [2] of over 10 µM. For the same compound, the IC50 [3] was over 10 µM, the IC50 [4] was over 10 µM and the IC50 [5] was over 10 µM. The IC50 [6] was over 10 µM.
With NC(=O)c1sc(-n2cnc3cc4c(cc32)OC(F)(F)O4)cc1OCc1ccccc1C(F)(F)F [Example 88, 5-(2,2-Difluoro-5H-[1,3]dioxolo[4,5-f]benzimidazol-5-yl)-3-{[2-(trifluoromethyl)benzyl]oxy}thiophene-2-carboxamide] the IC50 (PLK1 kinase domain) was 0.1 to 10 µM, the IC50 [1] was over 10 µM and the IC50 [2] was over 10 µM. For the same compound, the IC50 [3] was over 10 µM, the IC50 [4] was 1 to 10 µM and the IC50 [5] was over 10 µM. It also gave an IC50 [6] of over 10 µM.
O=C(O)c1sc(-n2cnc3cc(Cl)c(Cl)cc32)cc1OCc1ccoc1 [Example 77, 5-(5,6-Dichloro-1H-benzimidazol-1-yl)-3-(3-furylmethoxy)thiophene-2-carboxylic acid] showed an IC50 (PLK1 kinase domain) of under 0.1 µM, an IC50 [1] of over 10 µM and an IC50 [2] of over 10 µM. The IC50 [3] was over 10 µM, the IC50 [4] was over 10 µM and the IC50 [5] was over 10 µM. The IC50 [6] was over 10 µM.
CS(=O)(=O)Nc1ccc2ncn(-c3cc(OCc4ccccc4C(F)(F)F)c(C(N)=O)s3)c2c1 [Example 122, 5-{6-[(Methylsulfonyl)amino]-1H-benzimidazol-1-yl}-3-{[2-(trifluoromethyl)benzyl]-oxy}thiophene-2-carboxamide] was tested, and the IC50 (PLK1 kinase domain) was under 0.1 µM, the IC50 [1] was 1 to 10 µM and the IC50 [2] was 1 to 10 µM. It also gave an IC50 [3] of over 10 µM, an IC50 [4] of 1 to 10 µM and an IC50 [5] of over 10 µM. For the same compound, the IC50 [6] was 1 to 10 µM.
With C#Cc1ccccc1COc1cc(-n2cnc3cc(OC)c(OC)cc32)sc1C(N)=O [Example 106, 5-(5,6-Dimethoxy-1H-benzimidazol-1-yl)-3-[(2-ethynylbenzyl)oxy]thiophene-2-carboxamide] the IC50 (PLK1 kinase domain) was under 0.1 µM, the IC50 [1] was 1 to 10 µM and the IC50 [2] was 1 to 10 µM. For the same compound, the IC50 [3] was over 10 µM, the IC50 [4] was 1 to 10 µM and the IC50 [5] was over 10 µM. It also gave an IC50 [6] of 1 to 10 µM.
O=C(O)c1sc(-n2cnc3ccc(Cl)cc32)cc1OCc1cccnc1 [Example 72, 5-(6-Chloro-1H-benzimidazol-1-yl)-3-(pyridin-3-ylmethoxy)thiophene-2-carboxylic acid] showed an IC50 (PLK1 kinase domain) of under 0.1 µM, an IC50 [1] of over 10 µM and an IC50 [2] of over 10 µM. The IC50 [3] was over 10 µM, the IC50 [4] was over 10 µM and the IC50 [5] was over 10 µM. It also gave an IC50 [6] of over 10 µM.
Compound CS(=O)(=O)N1CCC(COc2cc(-n3cnc4cc5c(cc43)OCCO5)sc2C(N)=O)CC1 [Example 124, 5-(6,7-Dihydro-1H-[1,4]dioxino[2,3-f]benzimidazol-1-yl)-3-{[1-(methylsulfonyl)-piperidin-4-yl]methoxy}thiophene-2-carboxamide] has an IC50 (PLK1 kinase domain) of 0.1 to 10 µM, an IC50 [1] of over 10 µM and an IC50 [2] of over 10 µM. The IC50 [3] was over 10 µM, the IC50 [4] was over 10 µM and the IC50 [5] was over 10 µM. The IC50 [6] was over 10 µM.
